Laboratory results reported in US11350630B2, “1-amino-1-cyclopropanecarboxylic acid hydrochloride formulations” (Valent BioSciences LLC, priority 2017, dated 2022).

Experiments:
cotton cotyledons = assay: Cotton cotyledon bioefficacy assay: effect of solution pH and ACC form on ethylene production; details: for Ethylene Production: 250 ppm, 48 hours after spray
[1] = Stable non-aqueous ACC HCl salt formulation (solubility, stability at 5° C.); type: physicochemical; details: 13.6% ACC HCl salt, 84.4% propylene glycol, 2% Tween 20
Experimental: A formulation was prepared containing 13.6% ACC HCl salt, 84.4% propylene glycol and 2% Tween® 20.
Further, non-aqueous formulations of the present invention remained stable when placed at 5° C. Thus, specific non-aqueous formulations can stabilize ACC HCl salt.

[2] = Non-aqueous solvent screening (solubility of ACC HCl); type: physicochemical; details: about 21° C.
Experimental: ACC HCl salt was added at 1-gram increments to 1 liter of each of the solvents in Table 1 at about 21° C. while stirring until the salt would no longer solubilize.

[3] = Chemical stability of ACC HCl in select non-aqueous solvents, 5 or 54 C, 2 weeks; type: physicochemical; details: for % loss / ACC HCl 5 C., 2 weeks / ACC HCl 54 C., 2 weeks: 2 weeks; for ACC HCl Initial: time 0
Experimental: Formulations were prepared with 14% w/w initial concentration of ACC HCl and 2.5% w/w Tween® 20 in each of the following solvents: polyethylene glycol and propylene glycol. Each formulation was then stored at 5 or 54 C for 2 weeks, which is the equivalent of storage for 2 years at room temperature. ACC HCl salt concentration was measured at time 0 and at 2 weeks.

[4] = Titration of ACC HCl salt solutions; type: physicochemical
Experimental: When ACC HCl salt was added to water to a concentration of 10% w/w ACC the pH was determined to be 1.0±0.3. The solution was then titrated with each of sodium hydroxide, N,N dimethyl ethanolamine, triethanolamine, choline hydroxide, ammonium hydroxide dimethyl amine, and triethyl tetramine to achieve more basic solutions.
Thus, ACC HCl salt solutions are inherently unstable at a pH range of 2.75 to 8.5.

[5] = Chemical stability of ACC HCl in select non-aqueous solvents, 54 C, 3 weeks; type: physicochemical; details: for ACC HCl 3 weeks / ACC HCl % loss: 54 C, 3 weeks; for ACC HCl Initial: time 0
Experimental: Formulations were prepared with 14% w/w initial concentration of ACC HCl and […] Tween® 20 in each of the following solvents: 1,3 propanediol; ethylene glycol; diethylene glycol; dimethyl lactamide; and N-methyl pyrrolidone. Each formulation was then stored at 54 C for 3 weeks, which is the equivalent of storage for 3 years at room temperature. ACC HCl salt concentration was measured at time 0 and at 3 weeks.

Gala apple = assay: Apple fruitlet thinning assay; type: in vivo
Experimental: Formulations 1-3 were diluted with water to 408 ppm ACC HCl salt (i.e. molar equivalent to 300 ppm ACC free acid) and applied to Gala apple fruit when mean fruit diameter was 20 mm along with ACC free acid at 300 ppm. The apple plants were allowed to reach fruit set and set fruits were counted and compared to an untreated control. Fruit set was calculated as the number of fruits which set on a sample of 100 flower clusters.

[6] = Surfactant screening for stable ACC HCl salt solutions (titration with potassium hydroxide); type: physicochemical; details: addition at about 0.5% w/w
Experimental: The solution was then titrated with potassium hydroxide to achieve a more basic solution. Due to the exothermic nature of the titration process, titration occurred in a water bath maintained at a temperature of 20° C.±5° C.

[7] = Polyethylene glycol with 2.5% w/w Tween 20, 5 C
[8] = Polyethylene glycol with 2.5% w/w Tween 20, 54 C
[9] = Propylene glycol with 2.5% w/w Tween 20, 5 C
[10] = Propylene glycol with 2.5% w/w Tween 20, 54 C
[11] = Diethylene glycol with Tween 20
[12] = Dimethyl lactamide with Tween 20
[13] = N-methyl pyrrolidone with Tween 20

SMILES: Cl.NC1(C(=O)O)CC1 [ACC HCl, 1-amino-1-cyclopropanecarboxylic acid hydrochloride salt]
- Ethylene Production (cotton cotyledons; solution pH 2.5): 26.9 nL/g FW/hr
- Ethylene Production (cotton cotyledons; solution pH 5.0): 16.5 nL/g FW/hr
- more ethylene generated at pH 2.5 than at pH 5.0 (cotton cotyledons; same solution, pH 2.5 vs pH 5.0): 65%
- solubility in non-aqueous solvents [1]: soluble
- Measured Solubility of ACC HCl ([2]; 1,3-propane diol): 25 % w/w
- Measured Solubility of ACC HCl ([2]; Diethylene glycol monomethyl ether): 14 % w/w
- Measured Solubility of ACC HCl ([2]; Diethylene glycol): 25 % w/w
- Measured Solubility of ACC HCl ([2]; Dimethyl lactamide): 20 % w/w
- Measured Solubility of ACC HCl ([2]; Dipropylene glycol): 8 % w/w
- Measured Solubility of ACC HCl ([2]; Ethyl lactate): 14 % w/w
- Measured Solubility of ACC HCl ([2]; Ethylene glycol): 34 % w/w
- Measured Solubility of ACC HCl ([2]; Fatty alcohol ethoxylate): 14 % w/w
- Measured Solubility of ACC HCl ([2]; Glycerin): 14 % w/w
- Measured Solubility of ACC HCl ([2]; Monoacetin): 14 % w/w
- Measured Solubility of ACC HCl ([2]; N-methyl-2-pyrrolidinone): 20 % w/w
- Measured Solubility of ACC HCl ([2]; Polyethylene glycol 200): 21 % w/w
- Measured Solubility of ACC HCl ([2]; Polyethylene glycol 400): 14 % w/w
- Measured Solubility of ACC HCl ([2]; Polyethylene glycol 600): 14 % w/w
- Measured Solubility of ACC HCl ([2]; Polypropylene glycol): 14 % w/w
- Measured Solubility of ACC HCl ([2]; Propylene carbonate): <2 % w/w
- Measured Solubility of ACC HCl ([2]; Propylene glycol): 27 % w/w
- Measured Solubility of ACC HCl ([2]; The ester of 2-ethyl hexanol and natural lactic acid): 14 % w/w
- % loss [3, 7]: −0.3%
- ACC HCl 5 C., 2 weeks [3, 7]: 14.20 % w/w
- % loss [3, 8]: 2.5%
- ACC HCl 54 C., 2 weeks [3, 8]: 13.81 % w/w
- ACC HCl Initial ([3]; Polyethylene glycol with 2.5% w/w Tween 20): 14.16 % w/w
- % loss [3, 9]: 0%
- ACC HCl 5 C., 2 weeks [3, 9]: 14.10 % w/w
- % loss [3, 10]: 6.7%
- ACC HCl 54 C., 2 weeks [3, 10]: 13.15 % w/w
- ACC HCl Initial ([3]; Propylene glycol with 2.5% w/w Tween 20): 14.10 % w/w
- pH of solution ([4]; ACC HCl salt added to water to 10% w/w ACC): 1.0±0.3
- pH at which all precipitates dissolve into solution ([4]; further titration with base): above 9.0
- ACC HCl 3 weeks ([5]; 1,3 propanediol with Tween 20): 13.9 % w/w
- ACC HCl % loss ([5]; 1,3 propanediol with Tween 20): 1.7 % loss
- ACC HCl Initial ([5]; 1,3 propanediol with Tween 20): 14.14 % w/w
- ACC HCl 3 weeks [5, 11]: 13.8 % w/w
- ACC HCl % loss [5, 11]: 1.4 % loss
- ACC HCl Initial [5, 11]: ~14% w/w
- ACC HCl 3 weeks [5, 12]: 13.5 % w/w
- ACC HCl % loss [5, 12]: 2.9 % loss
- ACC HCl Initial [5, 12]: 13.9 % w/w
- ACC HCl 3 weeks ([5]; Ethylene glycol with Tween 20): 13.6 % w/w
- ACC HCl % loss ([5]; Ethylene glycol with Tween 20): 2.9 % loss
- ACC HCl Initial ([5]; Ethylene glycol with Tween 20): 14.0 % w/w
- ACC HCl 3 weeks [5, 13]: 13.9 % w/w
- ACC HCl % loss [5, 13]: 0.7 % loss
- ACC HCl Initial [5, 13]: 14.0 % w/w

SMILES: NC1(C(=O)O)CC1 [ACC free acid, 1-amino-1-cyclopropanecarboxylic acid]
- Fruit set (Gala apple; 408 ppm ACC HCl salt (formulations) or 300 ppm ACC free acid, mean fruit diameter 20 mm): 70 fruit/100 flower clusters
- reduction of fruit set (Gala apple; compared to untreated control): 20%
- Ethylene Production (cotton cotyledons; solution pH 2.5): 31.1 nL/g FW/hr
- Ethylene Production (cotton cotyledons; solution pH 5.0): 13.4 nL/g FW/hr

SMILES: O=C(O)CN(CCN(CC(=O)O)CC(=O)O)CC(=O)O [EDTA, ethylenediaminetetraacetic acid]
- solution stability of ACC HCl salt solution [6]: further enhanced solution stability
